Measured values as given in patent US7563774B2, “Combination of FBPase inhibitors and antidiabetic agents useful for the treatment of diabetes” (Metabasis Therapeutics, Inc., priority 2000, dated 2009).

Assays:
Sprague Dawley rats = experiment: Oral glucose lowering in overnight fasted Sprague Dawley rats (Example G); format: in vivo, rat; details: […]
Procedure: Oral efficacy of Compound J was assessed in overnight fasted Sprague Dawley rats. […] At 1.5 h or 4 h post drug administration, a blood sample was taken from the tail vein and analyzed for blood glucose by means of an automated glucose analyzer (HemoCue, HemoCue Inc, Mission Viejo, Calif.).

[1] = tested on: streptozotocin-induced diabetic rat; experiment: Chronic combination treatment of a fatty acid oxidation inhibitor and an FBPase inhibitor in the streptozotocin-induced diabetic rat (Example JJ); format: in vivo; details: etomoxir 3-300 mg/kg s.c., Compound J 0.2% w/w food admixture, 2-6 weeks
Procedure: Male Sprague-Dawley rats (Charles Rivers Laboratories) weighing approximately 120 g at the beginning of the study are housed under standard vivarium conditions and fed standard chow (Purina 5001). Rats are rendered diabetic by injection of 55 mg/kg body weight of streptozotocin (STZ) in citrate buffer, pH 4.7. […] Drug treatment is continued for 2-6 weeks. Blood glucose levels are monitored at regular intervals during the treatment period. At the end of the study, rats are anesthetized and instrumented with jugular vein and carotid artery catheters. Hepatic glucose production is measured using a primed constant infusion of (^3H)-6-glucose. Blood samples are taken after two hours, and the specific activity of glucose measured by […]. Hepatic glucose production rater are calculated by standard methods.

ZDF rats = experiment: Chronic combination treatment of an insulin secretagogue and an FBPase inhibitor in the ZDF rat (Example Y); format: in vivo; details: maximal doses, 2 to 12 weeks
From the text: Male ZDF rats are purchased at 7 weeks of age from Genetics Models Inc. (Indianapolis, Ind.). […] At 8 weeks of age, animals are divided into 4 treatment groups (n=8/group). The treatments are control, Compound J, glyburide, and the combination of Compound J and glyburide. […] Other parameters measured by standard assays include: lactate, glycerol, alanine, triglycerides, free fatty acids, ketone bodies, hepatic and muscle glycogen, cholesterol, VLDL, HDL, hemoglobin Alc, body weight, food and water intake, as well as other measures of carbohydrate, lipid, and protein metabolism. […] Differences between groups are evaluated ANOVA using an appropriate post hoc test. Results are considered significant with p<0.05.

Db/db or ob/ob mice = experiment: Acute combination treatment of a glucose-6-phosphatase inhibitor and an FBPase inhibitor in db/db or ob/ob mice (Example GG); format: in vivo, mouse; details: 0.5 to 300 mg/kg p.o.
Procedure: Db/db or ob/ob mice are purchased at 5 weeks of age from Jackson Laboratories (Bar Harbor, Me.). The mice are maintained under standard vivarium conditions (24-26° C., 12-hour light cycle, 12-hour dark cycle) and receive standard chow and water ad libitum. At more than 10 weeks of age, animals are divided into 4 groups (n=5 to 7/group). […] Food is either withheld or made available after treatment. Blood glucose levels in tail vein samples are measured by means of standard manual or automated methods.

[2] = tested on: Zucker Diabetic Fatty (ZDF) rat; experiment: Glucose lowering in the ZDF rat (Example W); format: in vivo; details: for Blood Glucose: 0.4% food admixture
From the text: The Zucker Diabetic Fatty (ZDF) rat is widely used as a model for human NIDDM as the progression of the disease in these rodents is similar to that described for human […] patients. […] Clark J B, Palmer C J (1982) Diabetes 30: 126A Terrettaz J, Jeanrenaud B (1983) Endocrinology 112: 1346-1351.

[3] = tested on: Zucker Diabetic Fatty rats; experiment: Acute combination treatment of an insulin secretagogue and Compound J in the ZDF rat (Example X); format: in vivo
Procedure: Experimental Protocol: Zucker Diabetic Fatty rats (9.5 weeks of age) were fasted for 5 hours starting at 8 am. The animals were then divided into 4 treatments groups with statistically similar baseline blood glucose levels. Test compounds were administered by oral gavage. The treatments were as shown below:
One hour after saline or drug administration, all animals received a simulated meal in the form of an oral bolus of glucose (1 g/kg). Blood glucose was then monitored at regular time intervals for 3 hours. Test compounds were prepared as suspensions in 0.1% carboxymethylcellulose. Blood samples were obtained by nicking of a tail vein. Blood glucose was measured by means of a HemoCue glucose analyzer according to the manufacturer's instructions (HemoCue Inc., Mission Viejo, Calif.). Results are expressed as the mean ± standard error of the mean for all values.

[4] = tested on: streptozotocin diabetic Sprague Dawley rats; experiment: Acute combination treatment of an FBPase inhibitor and an amylin agonist in streptozotocin diabetic rats (Example HH); format: in vivo, rat; details: pramlintide 10 micrograms i.v., Compound J 300 mg/kg p.o.
Procedure: Animals are then gavaged with 1 mL 50% glucose, and allowed ad libitum access to food. Blood glucose is collected from the tail vein at 0, 30, 60, 120, 180, and 240 minutes following glucose administration.

C57BL/KsJ db/db mice = experiment: Acute combination treatment of a biguanide and an FBPase inhibitor in db/db mice (Example DD); format: in vivo, mouse
Procedure: Male C57BL/KsJ db/db mice were purchased at 5 weeks of age from Clea Japan, Inc. (Tokyo, Japan). The mice were maintained under standard vivarium conditions (24-26° C., 12-hour light cycle, 12-hour dark cycle) and received standard chow and water ad libitum. […] The treatment groups were control, compound J , metformin, and the combination of compound J and metformin. […] Food was removed after treatment. Blood glucose levels in tail vein samples were measured by means of a Glucoloader-F, an automatic glucose analyzer, (A&T Co., Ltd., Tokyo, Japan).

Goto-Kakizaki rats = experiment: Acute combination treatment of an alpha glucosidase inhibitor and an FBPase inhibitor in Goto-Kakizaki rats (Example EE); format: in vivo, rat
Procedure: Goto-Kakizaki rats, an animal model of lean NIDDM, were purchased at 5 weeks of age from Charles River Japan, Inc. (Tokyo, Japan). The rats were maintained under standard vivarium conditions (24-26° C., 12-hour light cycle, 12-hour dark cycle) and received standard chow and water ad libitum. At 18 weeks of age, animals were divided into 4 groups (n=5/group). The treatment groups were control, Compound J, acarbose (Bayer, Japan), and the combination of Compound J and acarbose. All animals were given 1 g/kg of corn starch by oral gavage. […] Acarbose was administered orally at a dose of 1 mg/kg simultaneously with starch. Blood glucose levels in tail vein samples were measured by means of a Glucoloader-F, an automatic glucose analyzer, (A&T Co., Ltd., Tokyo, Japan).

[5] = glyburide 100 mg/kg, Compound J 300 mg/kg p.o.

For CCOC(=O)[C@H](C)NP(=O)(N[C@@H](C)C(=O)OCC)c1ccc(-c2nc(N)sc2CC(C)C)o1 [Compound J, 2-Amino-5-isobutyl-4-{2-[5-(N,N′-bis((S)-1-ethoxycarbonyl)ethyl)phosphonamido]furanyl}thiazole], the “Glucose Lowering, %” value (Sprague Dawley rats; Compound J 10 mg/kg p.o.) was 66%, the “Glucose Lowering, %” value (Sprague Dawley rats; Compound J 30 mg/kg p.o.) was 85% and the Blood Glucose [1] was “lowered significantly”. The glycemic control (ZDF rats) was “more effective than glyburide as pancreatic function declines”, the blood glucose lowering (Db/db or ob/ob mice) was “significantly lower blood glucose relative to control values” and the glycemic control [2] was “significantly improved glycemic control”. The “Blood Glucose” value ([2]; Day 0) was 674 ± 20 mg/dL, the “Blood Glucose” value ([2]; Day 21) was 452 ± 40 mg/dL and the “blood glucose after oral glucose load (FIG. 1)” value [3, 5] was “lowering blood glucose to below baseline levels”. For the same compound, the “blood lactate levels (FIG. 2)” value [3, 5] was “increase in blood lactate levels”, the AUC glucose ([3]; initial 4 hours post drug, glyburide 100 mg/kg, Compound J 300 mg/kg p.o., oral glucose 1 g/kg) was 1121 ± 82 mg·h/dL and the maximally efficacious dose ([3]; pilot studies, ZDF rat) was 300 mg/kg. For the same compound, the postprandial glucose excursion [4] was “attenuated the postprandial glucose excursion”, the “Plasma Glucose, % of pretreatment value” (C57BL/KsJ db/db mice; after 2 hour) was “(70.2 +/− 14.6) %” and the “Plasma Glucose” value (C57BL/KsJ db/db mice; after 2 hour, Compound J and/or metformin 150 mg/kg p.o.) was 448.6 ± 42.5 mg/dL. The “Plasma Glucose” value (C57BL/KsJ db/db mice; after 4 hour) was 376.7 ± 39.9 mg/dL, the “Plasma Glucose, % of pretreatment value” (C57BL/KsJ db/db mice; after 4 hour) was “(72.4 +/− 5.0) %” and the “Plasma Glucose” value (C57BL/KsJ db/db mice; after 6 hour) was 357.7 ± 40.4 mg/dL. The “Plasma Glucose, % of pretreatment value” (C57BL/KsJ db/db mice; after 6 hour) was “(68.7 +/− 5.5) %”, the “Plasma Glucose” value (C57BL/KsJ db/db mice; after 8 hour) was 386.5 ± 43.1 mg/dL and the “Plasma Glucose, % of pretreatment value” (C57BL/KsJ db/db mice; after 8 hour) was “(74.2 +/− 5.8) %”. For the same compound, the “Plasma Glucose” value (C57BL/KsJ db/db mice; before (0 hour)) was 514.3 ± 23.0 mg/dL, the “Plasma Glucose, % of pretreatment value” (C57BL/KsJ db/db mice; before (0 hour)) was “(100.0 +/− 0.0) %” and the blood glucose lowering (C57BL/KsJ db/db mice; db/db mice, acute) was “lowered blood glucose significantly relative to controls”. The “Plasma Glucose, relative value (% of pre-treatment value)” value (Goto-Kakizaki rats; 0 min) was “(121.8 +/− 8.0) %”, the “Plasma Glucose” value (Goto-Kakizaki rats; 0 min, Compound J 10 mg/kg p.o. at −60 min, acarbose 1 mg/kg p.o. with starch) was 218.4 ± 19.9 mg/dL and the “Plasma Glucose” value (Goto-Kakizaki rats; 30 min after starch) was 245.2 ± 29.9 mg/dL. The “Plasma Glucose, relative value (% of pre-treatment value)” value (Goto-Kakizaki rats; 30 min after starch) was “(135.2 +/− 9.2) %”, the “Plasma Glucose” value (Goto-Kakizaki rats; 60 min after starch) was 251.0 ± 28.6 mg/dL and the “Plasma Glucose, relative value (% of pre-treatment value)” value (Goto-Kakizaki rats; 60 min after starch) was “(138.5 +/− 6.2) %”. The “Plasma Glucose” value (Goto-Kakizaki rats; 120 min after starch) was 182.8 ± 18.0 mg/dL, the “Plasma Glucose, relative value (% of pre-treatment value)” value (Goto-Kakizaki rats; 120 min after starch) was “(101.8 +/− 7.2) %” and the “Plasma Glucose” value (Goto-Kakizaki rats; 240 min after starch) was 144.6 ± 9.8 mg/dL. For the same compound, the “Plasma Glucose, relative value (% of pre-treatment value)” value (Goto-Kakizaki rats; 240 min after starch) was “(81.7 +/− 6.7) %”, the “Plasma Glucose, relative value (% of pre-treatment value)” value (Goto-Kakizaki rats; −60 min) was “(100.0 +/− 0.0) %” and the “Plasma Glucose” value (Goto-Kakizaki rats; −60 min relative to starch 1 g/kg) was 179.8 ± 15.2 mg/dL.
